Laboratory results as given in patent US10450288B2, “Hydroxy formamide derivatives and their use” (GLAXOSMITHKLINE INTELLECTUAL PROPERTY (NO.2) LIMITED, priority 2014, dated 2019).

Legend:
[1] = system: human cardiac fibroblasts; experiment: Cell-based inhibition assay of generation of procollagen I C-terminal propeptide (PICP), PICP ELISA; conditions: Cardiac fibroblast; human cardiac fibroblasts, crowding media, 24 to 48 hr, PICP ELISA of media; read-out: pIC50, PICP cellular inhibition assay (converted)
Procedure, shortened: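 Cardiac fibroblasts (passage ≤6) treated 24–48 h at 37 °C with compounds in ficoll crowding medium containing 100 μM ascorbic acid, DMSO <0.3%. PICP secreted into the medium was quantified by ELISA, normalised to untreated controls and fitted to log(inhibitor)–response to give pIC50.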

[2] = system: human cardiac fibroblasts; experiment: Cell-based inhibition assay of mature collagen deposition (immunostaining); conditions: Cardiac fibroblast; human cardiac fibroblasts, crowding media, 24 to 48 hr, collagen I immunostaining normalized to nuclei; read-out: pIC50, mature collagen cellular inhibition assay (converted)
Procedure: Cell-Based Inhibition Assay of Generation of Procollagen I C-Terminal Propeptide (PICP) and Mature Collagen:
An adaptation of the collagen deposition assay described by Chen, C. Z. C., et al., British Journal of Pharmacology, 2009, 158, 1196-1209 was used to examine effect of compounds on procollagen I processing and collagen deposition. In the adapted assay, human cardiac fibroblasts were utilized. Processing of procollagen I was determined by a PICP ELISA assay and deposition of mature collagen was determined by immunostaining.
Human cardiac fibroblasts were cultured and maintained until passage 6 in FGM-3 media (Lonza, #CC-3132) in a 37° C. humidified incubator with 5% CO2. They were then seeded in 96-well black wall, clear bottom plates at 10,000 to 15,000 cells per well in eagle's minimum essential media (EMEM, ATCC #30-2003) containing 10% fetal bovine serum (FBS, Life Technologies #10082147), 1% Glutamax (Life Technologies #35050061) and 1% Penicillin and Streptomycin (Life Technologies #15070063). These cultures were placed in 37° C. incubator. The next day, media were removed by aspiration and cells were rinsed with phosphate buffered saline. Crowding media (also called ficoll media) was prepared by adding 112.5 mg/ml of ficoll70 and 75 mg/ml ficoll400 (GE healthcare #17-0310-10 and 17-0300-10, respectively), 100 μM ascorbic acid, 1% Glutamax and 1% Penicillin and Streptomycin to EMEM media. Test compounds (dissolved in DMSO) were diluted into crowding media and then added to the cells. Final concentration of DMSO in crowding media was less than 0.3%. Cells were treated for 24 to 48 hr in a 37° C. incubator. At the end of the treatment period, cell media were collected. The level of PICP in the media were determined by a PICP ELISA assay (Quidel #8003) following the manufacturer's protocol. Potencies of test compounds were calculated by fitting PICP levels, relative to untreated controls, to log (inhibitor) vs. response equation using Graphpad Prism software 5.0 and expressed as pIC50.
For some compounds, deposition of mature collagen was measured by immunostaining in addition to PICP levels. At the end of the treatment period, cells on culture plate were fixed with 100% methanol (prechilled to −20° C.) for 10 min. Then the cells were immunostained with mouse anti-mature collagen I antibody (1:500 dilution, Sigma#C2456), anti-mouse secondary antibody Alexa647 (1:500 dilution, Invitrogen#A21236) and Hoechst (for nuclei, 2 μg/ml, Invitrogen#H3596). Fluorescent image acquisition was done using the Operetta High Content Imaging system (Perkin Elmer). For each image field, the intensity of mature collagen staining was normalized with the number of nuclei. Normalized collagen levels were used to calculate the potency of test compounds with Graphpad Prism software, as described above.

SMILES	IC50 [1] [nM]	IC50 [2] [nM]
CCCCC[C@@H](C(=O)NCNC(=O)c1ccc(-c2cc(O)cc(C(=O)O)c2)o1)[C@@H](CC)N(O)C=O [Example 112, 3-hydroxy-5-(5-((((R)-2((R)-1-(N-hydroxyformamido)propyl)heptanamido)methyl)carbamoyl)furan-2-yl)benzoic acid]	< 3980	< 1000
CCCCC[C@@H](C(=O)NCNC(=O)c1ccc(-c2cc(OCC(=O)O)cc(C(=O)O)c2)o1)[C@@H](CC)N(O)C=O [Example 113, 3-(carboxymethoxy)-5-(5-((((R)-2-((R)-1-(N-hydroxformamido)propyl)heptanamido)methyl)carbamoyl)furan-2-yl)benzoic acid]	< 3980	< 1000
CCCCC[C@@H](C(=O)NCNC(=O)c1ccc(-c2cc(OCC(=O)O)cc(C(=O)O)c2O)o1)[C@@H](CC)N(O)C=O [Example 121, 5-(carboxymethoxy)-2-hydroxy-3-(5-((((R)-2-((R)-1-(N-hydroxyformamido)propyl)heptanamido)methyl)carbamoyl)furan-2-yl)benzoic acid]	< 3980	< 1000
CCOc1cc(C(=O)N(CC(=O)O)CC(=O)O)cc(-c2ccc(C(=O)NCNC(=O)[C@H](CCc3ccc(F)cc3F)[C@@H](CC)N(O)C=O)o2)c1 [Example 122, 2,2′-((3-(5-((((2R,3R)-2-(2,4-difluorophenethyl)-3-(N-hydroxyformamido)pentanamido)methyl)carbamoyl)furan-2-yl)-5-ethoxybenzoyl)azanediyl)diacetic acid]	< 3980	< 1000
CCOc1cc(-c2ccc(C(=O)NCNC(=O)[C@H](CCc3ccc(F)cc3F)[C@@H](CC)N(O)C=O)o2)ccc1C(=O)N[C@@H](CC(=O)O)C(=O)O [Example 123, (S)-2-(4-(5-((((2R,3R)-2-(2,4-difluorophenethyl)-3-(N-hydroxyformamido)pentanamido)methyl)carbamoyl)furan-2-yl)-2-ethoxybenzamido) succinic acid]	< 3980	< 1000
CCOc1cc(-c2ccc(C(=O)NCNC(=O)[C@H](CCc3ccccc3)[C@@H](CC)N(O)C=O)o2)ccc1C(=O)N(CC(=O)O)CC(=O)O [Example 124, 2,2′-((2-ethoxy-4-(5-((((2R,3R)-3-(N-hydroxyformamido)-2-phenethylpentanamido)methyl)carbamoyl)furan-2-yl)benzoyl)azanediyl) diacetic acid]	< 3980	< 1000
CCCCC[C@@H](C(=O)NCNC(=O)c1ccc(-c2ccc(C(=O)N[C@@H](CC(=O)O)C(=O)O)c(OCC(=O)O)c2)o1)[C@@H](CC)N(O)C=O [Example 126, (S)-2-(2-(carboxymethoxy)-4-(5-((((R)-2-((R)-1-(N-hydroxyformamido)propyl)heptanamido)methyl)carbamoyl)furan-2-yl)benzamido) succinic acid]	< 3980	< 1000
CCOc1cc(-c2ccc(C(=O)NCNC(=O)[C@H](CCc3ccccc3)[C@@H](CC)N(O)C=O)o2)ccc1C(=O)N[C@@H](CC(=O)O)C(=O)O [Example 127, (S)-2-(2-ethoxy-4-(5-((((2R,3R)-3-(N-hydroxyformamido)-2-phenethylpentanamido)methyl)carbamoyl)furan-2-yl)benzamido) succinic acid]	< 3980	< 1000
CCCCC[C@@H](C(=O)NCNC(=O)c1ccc(-c2cc(O)c(C(=O)O)c(OCC)c2)o1)[C@@H](CC)N(O)C=O [Example 128, 2-ethoxy-6-hydroxy-4-(5-((((R)-2-((R)-1-(N-hydroxyformamido)propyl)heptanamido)methyl)carbamoyl)furan-2-yl)benzoic acid]	< 3980	< 1000
CCCCC[C@@H](C(=O)NCNC(=O)c1ccc(-c2ccc(C(=O)N[C@H](CC(=O)O)C(=O)O)c(OCC)c2)o1)[C@@H](CC)N(O)C=O [Example 132, (R)-2-(2-ethoxy-4-(5-((((R)-2-((R)-1-(N-hydroxyformamido)propyl)heptanamido)methyl)carbamoyl)furan-2-yl)benzamido) succinic acid]	< 3980	< 1000
CCCCC[C@@H](C(=O)NCNC(=O)c1ccc(-c2ccc(C(=O)NCP(=O)(O)O)c(OCC)c2)o1)[C@@H](CC)N(O)C=O [Example 139, ((2-ethoxy-4-(5-((((R)-2-((R)-1-(N-hydroxyformamido)propyl)heptanamido)methyl)carbamoyl)furan-2-yl)benzamido)methyl)phosphonic acid]	< 3980	< 1000
